From patent publication US20250027085A1, “COMPOSITIONS AND METHODS FOR TREATING ALZHEIMER'S DISEASE UTILIZING A TRANSCRIPTIONAL MASTER REGULATOR OF THE RETROMER COMPLEX” (THE TRUSTEES OF COLUMBIA UNIVERSITY IN THE CITY OF NEW YORK, priority 2022, published 2025)
“Also recorded” adds a separate entry of the source.

How the values were obtained:
[1] = tested on: rat hippocampal neurons; experiment: RNA-seq of Aβ42-challenged neurons with dovitinib co-treatment; type: cell-based
Procedure: Basal expression levels were measured in vehicle-treated cells. DEGs identified in Aβ42 condition are compared against their expression values in neurons co-treated with dovinitib. Individual datapoints show fold-changes over baseline (log2-transformed) of n=2 biological replicates. Aβ42 and dovitinib were applied for 24 hours before RNA collection. […] FGF, fibroblast growth factor.
Prior to RNA collection, neuronal cultures were washed with ice-cold HBSS (Thermo Fischer) and lysed with TRIzol reagent (#15596026, Thermo Fisher) by scrapping. The reaction was allowed to proceed on ice for 5 minutes, at which point samples were centrifuged at 12,000 g and 4° C. and supernatants transferred to new tubes before a 1:1 (v/v) dilution with molecular biology-grade 100% ethanol (Millipore Sigma). The RNA extraction protocol was continued using the Direct-zol RNA MicroPrep kit (Zymo Research), in accordance to manufacturer's instructions, and included an on-column DNA digestion step with DNase I. RNA was eluted in 30 μl of water. RNA-seq library preparation and sequencing reactions were conducted at GENEWIZ, Inc. (South Plainfield, NJ, USA). RNA sequencing libraries were prepared using the NEBNext Ultra RNA Library Prep Kit for Illumina following manufacturer's instructions (NEB). Briefly, mRNAs were first enriched with oligo(dT) beads. […] The sequencing libraries were validated on an Agilent TapeStation (Agilent Technologies) and quantified using a Qubit 2.0 Fluorometer (Life Technologies) as well as quantitative PCR (KAPA Biosystems). […] RNA-seq sequencing data were processed and analyzed within the Galaxy web platform, using the public server at usegalaxy.org. First, library adapters and low-quality reads were removed using Trimmomatic (version 0.38) with the following settings: initial ILLUMINACLIP step to cut adapters and other Illumina-specific sequences from the reads, seedMismatches=2, palindromeClipThreshold=30, simpleClipThreshold=10, minAdapterLength=8, keepBothReads=True, AVGQUAL >20, SLIDINGWINDOW: windowSize=4 and requiredQuality=20, and MINLEN=50. […]

[2] = Schafer et al., 2016; cited from earlier work
[3] = tested on: neurons; settings: Rodriguez et al., 2021; cited from earlier work
[4] = tested on: CREB3L2-ATF4 heterodimers; experiment: Proximity ligation assay (PLA) of axonal CREB3L2-ATF4 heterodimers; type: cell-based, rat; settings: emetine 100 nM to axons, last 60 minutes of 12-hour Aβ42 protocol
Procedure: Hippocampi were dissected from embryonic day (E) 16-18 rat embryos obtained from pregnant Sprague-Dawley dams (Envigo). All animal procedures were approved by the Institutional Animal Care and Use Committee at Columbia University. Cell dissociation was performed using TripLE Express. Neurons (50,000-60,000 per microfluidic chamber) were plated on 0.1 mg ml^-1 poly-D-lysine (Millipore Sigma) and 2 μg ml^-1 laminin (Bio-Techne) coated substrates and grown in Neurobasal supplemented with 10% fetal bovine serum, 2 mM L-glutamine, 1 mM sodium pyruvate, and antibiotics (50 U ml^-1 penicillin-streptomycin). Tripartite microfluidic chambers were produced with Dow Corning Sylgard 184 Silicone Encapsulant Clear Kit (10:1 mix ratio; Ellsworth Adhesives) cured at […] for at least 4 hours following published protocols (Park et al. 2006; Desai et al. 2009). Chamber design incorporated two sets of 200-μm-long microgroove barriers to exclude crossing of cell bodies and dendrites (Taylor et al. 2005; […] et al. 2009). After 24 hours, medium was changed to Neurobasal containing 1×B27 and 2 mM L-glutamine. Subsequent medium changes (half volumes) were performed at DIV4 and thereafter every 3-5 days. To prevent glial cell proliferation, medium changes included 5-flurodeoxyuridine and uridine (final concentration […]; Millipore Sigma) after DIV4. […]

[5] = molecular target: T1, GFP-tagged H. sapiens CREB3L2, full-length form (UniProt Q70SY1)
T1 sequence: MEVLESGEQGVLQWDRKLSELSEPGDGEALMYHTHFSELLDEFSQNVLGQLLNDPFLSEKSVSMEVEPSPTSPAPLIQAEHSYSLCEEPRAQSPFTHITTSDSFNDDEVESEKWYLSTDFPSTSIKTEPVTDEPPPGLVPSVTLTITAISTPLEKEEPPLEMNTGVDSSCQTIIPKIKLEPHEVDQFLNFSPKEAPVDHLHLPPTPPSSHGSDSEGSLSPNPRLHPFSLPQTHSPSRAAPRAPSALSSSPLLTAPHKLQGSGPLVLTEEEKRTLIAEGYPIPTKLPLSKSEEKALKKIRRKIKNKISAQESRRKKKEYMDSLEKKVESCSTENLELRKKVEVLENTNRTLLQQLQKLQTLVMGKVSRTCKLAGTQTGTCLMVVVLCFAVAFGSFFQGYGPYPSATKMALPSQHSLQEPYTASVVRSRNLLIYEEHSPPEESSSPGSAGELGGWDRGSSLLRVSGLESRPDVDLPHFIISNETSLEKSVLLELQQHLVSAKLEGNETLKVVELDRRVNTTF

[6] = molecular target: GFP-tagged CREB3L2-S1P- (full-length form with mutated S1P site) (UniProt Q70SY1)
[7] = tested on: rat hippocampal neurons; experiment: Neuronal viability (RealTime-Glo MT) after 48-hour Aβ42 stimulation; type: cell-based; settings: lentiviral delivery at DIV1; Aβ42 750 nM 48 hours; relative to wild-type neurons; Aβ42/vehicle ratios
Procedure: Plots show individual measurements and mean±SEM of n=3 biological replicates. For each background, data are presented as Aβ42/vehicle ratios. ATF4 aZIP: *P-value=0.0167; CREB3L2 aZIP: *P-value=0.0137; unpaired t-tests.
Specific aZIPs sequences were synthesized by Genewiz. CREB3L2 aZIP: 5′-[…]-3′. (SEQ ID NO: 68) ATF4 aZIP: 5′-[…]-3′. […] Lentiviral particles were delivered at DIV1, 24 hours post-dissection. Neuronal cultures were allowed to mature until DIV15 and treated with Aβ42 at 750 nM for 48 hours. Cell viability was assayed using RealTime-Glo MT Cell Viability Assay (Promega) following manufacturer's guidelines; reaction was allowed to proceed for 1 hour before taking luminescence readings (SpectraMax iD5, Molecular Devices). Also see FIGS. 34A-34D.

## CN1CCN(c2ccc3nc(-c4c(N)c5c(F)cccc5[nH]c4=O)[nH]c3c2)CC1 [dovitinib]
[1]; 24-hour Aβ42 + dovitinib vs Aβ42
  number of genes surpassing 0.25 differences in head-to-head comparisons: 30
[1]; 24-hour Aβ42 + dovitinib, log fold-change, n=2
  number of Aβ42 DEGs (of 203) showing corrective shifts 0.10 with dovitinib co-treatment: 131
[1]; 24 hours, Aβ42 alone log fold-change 0.57, over vehicle baseline
  Vgf log fold-change [Aβ42+dovitinib]: 0.07
[2]
  crossing of the blood-brain barrier: can cross
[3]
  toxicity to neurons: non-toxic

## CC[C@H]1CN2CCc3cc(OC)c(OC)cc3[C@@H]2C[C@@H]1C[C@H]1NCCc2cc(OC)c(OC)cc21 [emetine]
[4]
  Aβ42-induced upregulation of axonal CREB3L2-ATF4 heterodimers (PLA): completely prevented; also recorded: limited their association in axons to control levels

## site 1 protease (S1P)
[5]
  CREB3L2 proteolytic cleavage (western blot, coexpression in HEK293): Coexpression of S2P, but not S1P, together with full-length GFP-CREB3L2 in HEK293 cells is sufficient to promote the activation of CREB3L2

## site 2 protease (S2P)
[6]
  CREB3L2 proteolytic cleavage (western blot, coexpression in HEK293): Preventing S1P processing by eliminating its cleavage site does not impede S2P-mediated processing
[5]
  CREB3L2 proteolytic cleavage (western blot, coexpression in HEK293): Coexpression of S2P, but not S1P, together with full-length GFP-CREB3L2 in HEK293 cells is sufficient to promote the activation of CREB3L2

B1: ATF4 aZIP: dominant-negative acidic-ZIP peptide targeting ATF4, encoded by nucleotide SEQ ID NO: 69, delivered by lentivirus (protein)
peptide: MDYKDDDDKHMASMTGGQQMGRDPDLEQRAEELARENEELEKEAEELEQELAELTGECKELEKKNEALKEKADSLAKEIQYLKDLIEEVRKARGKKRVP
[7]
  cell viability in neurons exposed to Aβ42: significantly improved

B2: CREB3L2 aZIP: dominant-negative acidic-ZIP peptide targeting CREB3L2, encoded by nucleotide SEQ ID NO: 68, delivered by lentivirus (protein)
peptide: MDYKDDDDKHMASMTGGQQMGRDPDLEQRAEELARENEELEKEAEELEQELAELRKKVEVLENTNRTLLQQLQKLQTLVMGKVSRTCKLAGTQTGTCLMVVVL
[7]
  cell viability in neurons exposed to Aβ42: significantly improved
